Usually inhibition stands for the relative decrease from the control value, in per cent. Broadly, the IC50 is the concentration at which inhibition is half-maximal. Low values mean greater potency in that assay, high ones weaker potency in that assay. One may read the % inhibition as the percentage by which the read-out fell short of the control.

Read-outs that look alike come from different tables or passages of the source.

The source of these data is article PMC4236894, “Salicylanilide Diethyl Phosphates as Potential Inhibitors of Some Mycobacterial Enzymes” (The Scientific World Journal, 2014).

Experiment [1] concerns the target mycobacterial isocitrate lyase (ICL) (Mycobacterium tuberculosis, UniProt P9WKK7). Briefly: Isocitrate lyase assay (ICL1), glyoxylate phenyl hydrazone formation. It counts as biochemical. To be noted: read-out: % ICL inhibition at 10 μM (±standard deviation). The procedure: Isocitrate lyase activity was assayed according to the protocol reported by Dixon and Kornberg (glyoxylate phenyl hydrazone formation) at 10 µM of the investigated compounds. […] A description of the method can be found in the literature.

The test system of another experiment is Mtb H37Rv strain. To be noted: cited from earlier work.
Experiment [2] concerns the target Pantothenate synthetase (MtPS) (Mycobacterium tuberculosis, UniProt P9WIL5). Briefly: Mycobacterial pantothenate synthetase (MtPS) screening. It counts as biochemical. Conditions: 50 μM compound. As for the experimental part: Sixty microliters of the PS reagent mix was added, including NADH, pantoic acid, β-alanine, ATP, phosphoenolpyruvate, MgCl2, myokinase, pyruvate kinase, and lactate dehydrogenase in buffer, to each well of a 96-well plate. The compounds were then added to plates in 1 μL volumes. The reaction was initiated by the addition of 39 μL PS diluted in buffer. The final concentrations in the reaction were 0.4 mM NADH, 5 mM pantoic acid, 10 mM MgCl2, 5 mM β-alanine, 10 mM ATP, 1 mM potassium phosphoenolpyruvate, and 18 units/mL each of chicken muscle myokinase, rabbit muscle pyruvate kinase, and rabbit muscle lactate dehydrogenase diluted in 100 mM HEPES buffer (pH 7.8), 1% DMSO, and 5 μg/mL PS in a final volume of 100 μL. The test plate was immediately transferred to a microplate reader, and absorbance was measured at 340 nm every 12 sec for 120 sec. […] The per cent inhibition was calculated using the following formula: 100 ∗ 1 − compound rate − background rate/full reaction rate − background rate.

Another experiment has as its target T1, Chorismate mutase (MtCM) (Mycobacterium tuberculosis, UniProt P9WIB9).
T1 sequence (P9WIB9 34-199): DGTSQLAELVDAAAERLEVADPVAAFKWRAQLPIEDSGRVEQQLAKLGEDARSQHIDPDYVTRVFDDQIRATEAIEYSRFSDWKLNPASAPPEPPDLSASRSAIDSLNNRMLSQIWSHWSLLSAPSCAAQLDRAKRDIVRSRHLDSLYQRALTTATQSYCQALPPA
The experiment in a line: biochemical. The procedure: Reaction volumes of 0.4 mL of chorismate (typically 1 mM) in 50 mM Tris HCl (pH 7.5), 0.5 mM EDTA, 0.1 mg/mL bovine serum albumin, and 10 mM β-mercaptoethanol were incubated at 37°C for 5 min. […] The reaction was allowed to proceed at 37°C and was terminated after 1 to 5 min with 0.4 mL 1 M HCl. After a further incubation at 37°C for 10 min to convert prephenate, which is formed in the enzymatic reaction, to phenylpyruvate, 0.8 mL 2.5 M NaOH was added. The absorbance of the phenylpyruvate chromophore was read at 320 nm. We set up a blank with no enzyme for every reaction to account for the nonenzymatic conversion of chorismate to prephenate and added the enzyme after the addition of NaOH. […] A description of the methods can be found in the literature.

Experiment [3] has as its target T2, Lysine ε-aminotransferase (MtLAT) (Mycobacterium tuberculosis, UniProt P9WQ77).
T2 sequence (P9WQ77 1-449): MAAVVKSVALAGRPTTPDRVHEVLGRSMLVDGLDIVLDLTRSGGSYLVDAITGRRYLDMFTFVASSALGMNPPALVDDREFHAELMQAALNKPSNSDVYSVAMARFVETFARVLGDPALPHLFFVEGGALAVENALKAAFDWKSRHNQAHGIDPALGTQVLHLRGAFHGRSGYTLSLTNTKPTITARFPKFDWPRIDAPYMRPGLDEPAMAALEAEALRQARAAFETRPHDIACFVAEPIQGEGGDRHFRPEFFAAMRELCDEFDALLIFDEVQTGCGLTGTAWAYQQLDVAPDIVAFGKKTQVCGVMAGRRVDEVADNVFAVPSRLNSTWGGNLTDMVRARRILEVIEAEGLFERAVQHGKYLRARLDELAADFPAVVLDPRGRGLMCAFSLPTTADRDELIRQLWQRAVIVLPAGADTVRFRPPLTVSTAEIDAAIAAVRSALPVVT
Briefly: biochemical.

Experiment [4] concerns the target T3, L-alanine dehydrogenase (MtAlaDH) (Mycobacterium tuberculosis, UniProt P9WQB1).
T3 sequence (P9WQB1 1-371): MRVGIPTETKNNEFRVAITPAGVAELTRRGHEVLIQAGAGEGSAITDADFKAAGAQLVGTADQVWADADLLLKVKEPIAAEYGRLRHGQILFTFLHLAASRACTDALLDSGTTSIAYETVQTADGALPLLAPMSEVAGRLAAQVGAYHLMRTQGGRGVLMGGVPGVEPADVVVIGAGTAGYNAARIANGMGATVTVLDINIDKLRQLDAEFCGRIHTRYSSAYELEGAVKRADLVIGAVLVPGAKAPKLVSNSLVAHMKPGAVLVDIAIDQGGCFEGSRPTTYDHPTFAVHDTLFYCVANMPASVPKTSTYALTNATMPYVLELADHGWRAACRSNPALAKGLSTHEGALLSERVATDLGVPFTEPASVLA
Briefly: biochemical.

Sequence of mycobacterial isocitrate lyase (ICL) (P9WKK7 whole entry): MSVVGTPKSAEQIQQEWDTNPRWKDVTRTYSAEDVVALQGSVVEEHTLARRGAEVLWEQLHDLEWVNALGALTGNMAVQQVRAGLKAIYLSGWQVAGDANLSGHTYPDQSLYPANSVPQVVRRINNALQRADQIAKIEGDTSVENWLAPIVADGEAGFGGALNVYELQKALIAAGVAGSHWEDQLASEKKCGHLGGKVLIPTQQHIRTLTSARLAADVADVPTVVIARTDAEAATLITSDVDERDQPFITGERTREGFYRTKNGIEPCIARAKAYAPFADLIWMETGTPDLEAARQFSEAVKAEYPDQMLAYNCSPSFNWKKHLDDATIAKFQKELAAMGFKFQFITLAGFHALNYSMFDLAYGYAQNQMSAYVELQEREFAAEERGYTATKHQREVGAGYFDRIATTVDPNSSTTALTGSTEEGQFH
Sequence of Pantothenate synthetase (MtPS) (P9WIL5 whole entry, looked up): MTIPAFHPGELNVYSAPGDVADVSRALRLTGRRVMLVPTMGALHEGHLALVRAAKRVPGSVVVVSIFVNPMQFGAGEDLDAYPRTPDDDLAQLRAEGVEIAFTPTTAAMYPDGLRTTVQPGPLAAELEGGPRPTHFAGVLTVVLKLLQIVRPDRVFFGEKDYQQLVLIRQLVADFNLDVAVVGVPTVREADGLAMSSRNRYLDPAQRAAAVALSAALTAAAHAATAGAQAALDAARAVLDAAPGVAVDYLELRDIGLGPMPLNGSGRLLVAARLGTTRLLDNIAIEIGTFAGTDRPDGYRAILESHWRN

As to `NNC(=O)c1ccncc1` [Isoniazid], the inhibition at 10 µM in experiment [1] (10 μM compound) stood at 0%.
For the molecule `O=C(O)CC[N+](=O)[O-]` [3-Nitropropionic acid, 3-nitropropionic acid], the inhibition at 10 µM in experiment [1] (10 μM compound) stood at 25 ± 4.1%.
For the molecule `CCOP(=O)(OCC)Oc1cc(Cl)ccc1C(=O)Nc1cccc(Cl)c1` [1s, 5-Chloro-2-[(3-chlorophenyl)carbamoyl]phenyl diethyl phosphate], the inhibition at 10 µM in experiment [1] was found to be 6 ± 0.83%. In addition, the “MICs against actively growing Mtb H37Rv strain” value in the experiment on Mtb H37Rv strain was 4 to 8 µM. Further, the inhibition at 50 µM in experiment [2] (read-out: % inhibition at 50 μM against MtPS) was 11.2%; at Chorismate mutase (MtCM) (read-out: % inhibition at 50 μM against MtCM, 50 μM compound), above 60%; in experiment [3] (read-out: % inhibition at 50 μM against MtLAT, 50 μM compound) it was above 50%; in experiment [4] (read-out: % inhibition at 50 μM against L-MtAlaDH, 50 μM compound), above 70%. Moreover, inhibition in experiment [4] was half-maximal at 4.96 µM (IC50).
`CCOP(=O)(OCC)Oc1cc(Cl)ccc1C(=O)Nc1ccc(C(F)(F)F)cc1` [1r]: on Chorismate mutase (MtCM), the “% inhibition at 50 μM against MtCM” value came out at 50.05%. In addition, in experiment [3], the “% inhibition at 50 μM against MtLAT” value is given as 23.18%. For the same molecule, in experiment [4], the “% inhibition at 50 μM against L-MtAlaDH” value is 47.28% and the half-inhibitory concentration (IC50) is above 50 µM.
With `CCOP(=O)(OCC)Oc1cc(Cl)ccc1C(=O)Nc1cccc(Cl)c1` [1j], in experiment [2], the “% inhibition at 50 μM against MtPS” value came to 3.64%. The “% inhibition at 50 μM against MtCM” value at Chorismate mutase (MtCM) is given as 54.56%. The “% inhibition at 50 μM against MtLAT” value in experiment [3] stood at 29.30%. In experiment [4], the “% inhibition at 50 μM against L-MtAlaDH” value is 12.30% and the IC50 was above 50 µM.
